The record followed here is ChEMBL document CHEMBL1201862, “PubChem BioAssay data set” (2004).

Among the test systems are A498; ACHN; CAKI-1; HCC 2998; HCT-15; HOP-92; K562; KM12; M14; MDA-MB-231; MOLT-4; NCI-H23; OVCAR-3; OVCAR-5; SK-MEL-2; SN12C; SNB-19; SW-620; UACC-62; Malme-3M.
What all share (assay): NCI-60 cell line screen, 48 h

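Step 1: Grow cells in 96-well plates. Step 2: Expose to compound for 48 hours at 5 concentrations. Step 3: Interpolate endpoints linearly; if unreached, use highest concentration. GI50 = concentration required for 50% inhibition of growth.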 Activity calls are given as the source filed them. Rule as the data show it: active = GI50 up to about 1.1 µM and inactive = higher. Where only a bound is given, the exact number is not on record here.

Take `N#C/C(=C\N1CCNC1=S)C(=O)c1ccc2ccccc2c1`: the GI50 is > 100 µM (inactive) in the experiment on A498; > 100 µM (inactive) in the experiment on ACHN; > 100 µM (inactive) in the experiment with CAKI-1; > 100 µM (inactive) with HCC 2998; above 100 µM in the experiment with HCT-15; > 100 µM (inactive) with HOP-92. The GI50 with K562 is > 100 µM (inactive); with KM12, > 100 µM (inactive); in the experiment with M14, > 100 µM (inactive); in the experiment on MDA-MB-231 it was > 100 µM (inactive); with MOLT-4, 37.4 µM (inactive); with NCI-H23, > 100 µM (inactive). In addition, the GI50 in the experiment on OVCAR-3, in the experiment with OVCAR-5, with SK-MEL-2, with SN12C, in the experiment with SNB-19 and in the experiment on SW-620 was > 100 µM (inactive) in each case. Besides, in the experiment on UACC-62, the GI50 was > 100 µM (inactive).
For `Cc1ccc2c(c1)[nH]c(=S)n2C=C(C(N)=O)C(N)=O`, the GI50 in the experiment on A498 is > 100 µM (inactive); in the experiment on ACHN, > 100 µM (inactive); in the experiment on CAKI-1, > 100 µM (inactive); with HCC 2998, > 100 µM (inactive); in the experiment with HCT-15, above 100 µM; in the experiment on HOP-92, > 100 µM (inactive). In addition, the GI50 in the experiment on KM12, with M14, with MDA-MB-231, with NCI-H23, in the experiment on OVCAR-3 and in the experiment on OVCAR-5 was > 100 µM (inactive) each time. The GI50 in the experiment with SK-MEL-2, in the experiment on SN12C, with SNB-19, in the experiment on SW-620 and with UACC-62 was > 100 µM (inactive) throughout.
For the compound `Nc1ncnc2c1ncn2-c1ccc([N+](=O)[O-])cn1`, the GI50 with A498 was > 100 µM (inactive); with ACHN it was > 100 µM (inactive); in the experiment with CAKI-1 it was > 100 µM (inactive); with HCC 2998 it was > 100 µM (inactive); in the experiment on HCT-15, above 100 µM; in the experiment with HOP-92 it was > 100 µM (inactive). Besides, the GI50 is > 10 µM (inactive) in the experiment with K562; > 100 µM (inactive) with KM12; > 100 µM (inactive) with M14; > 100 µM (inactive) with MDA-MB-231; > 100 µM (inactive) in the experiment with NCI-H23; > 100 µM (inactive) in the experiment on OVCAR-3. The GI50 in the experiment with OVCAR-5, in the experiment on SK-MEL-2, with SN12C, with SNB-19, with SW-620 and in the experiment on UACC-62 was > 100 µM (inactive) each time.
`O=S(=O)(O)c1ccc(/N=N/c2ccccc2)cc1`: the GI50 with A498 was > 100 µM (inactive); in the experiment with ACHN it was > 100 µM (inactive); with CAKI-1, > 100 µM (inactive); in the experiment on HCC 2998 it was > 100 µM (inactive); in the experiment on HCT-15, above 100 µM; in the experiment on HOP-92, > 100 µM (inactive). Further, the GI50 in the experiment on K562, with KM12, in the experiment on M14, with MDA-MB-231, in the experiment with MOLT-4 and in the experiment on NCI-H23 was > 100 µM (inactive) each time. Further, the GI50 in the experiment with OVCAR-3, in the experiment on OVCAR-5, in the experiment with SK-MEL-2, in the experiment on SN12C, with SNB-19 and with SW-620 was > 100 µM (inactive) each time. Besides, in the experiment on UACC-62, the GI50 is > 100 µM (inactive).
For `COC(=O)C(Cc1c(C2Nc3ccccc3C2CC(NC(=O)CNC(C)=O)C(=O)OC)[nH]c2ccccc12)NC(=O)CNC(C)=O` (stereo not drawn), the GI50 in the experiment on A498 is > 100 µM (inactive); in the experiment with ACHN, > 100 µM (inactive); in the experiment with CAKI-1 it was > 100 µM (inactive); in the experiment with HCC 2998 it was > 100 µM (inactive); in the experiment on HCT-15, above 100 µM; in the experiment with HOP-92 it was > 100 µM (inactive). Moreover, the GI50 in the experiment with K562, in the experiment on KM12, in the experiment on M14, in the experiment with MDA-MB-231, in the experiment on Malme-3M and with NCI-H23 was > 100 µM (inactive) each time. The GI50 is > 100 µM (inactive) with OVCAR-5; > 86.9 µM (inactive) in the experiment with SK-MEL-2; > 100 µM (inactive) in the experiment on SN12C; > 100 µM (inactive) in the experiment with SNB-19; > 100 µM (inactive) in the experiment on SW-620; > 100 µM (inactive) with UACC-62.
Regarding `CSc1[nH]nc(N)c1C(=O)Nc1ccc(C)cc1`, the GI50 in the experiment with A498 was 18.7 µM (inactive); with ACHN, 55.2 µM (inactive); with CAKI-1 it was 40.1 µM (inactive); in the experiment with HCC 2998, 76.9 µM (inactive); in the experiment on HCT-15 it was 51.3 µM; with HOP-92, 19.5 µM (inactive). The GI50 with K562 was 69.5 µM (inactive); in the experiment on M14, 83.9 µM (inactive); in the experiment with MDA-MB-231, 63.2 µM (inactive); in the experiment with MOLT-4, 26.2 µM (inactive); in the experiment with Malme-3M, 89.1 µM (inactive); in the experiment with NCI-H23, 61.1 µM (inactive). Moreover, the GI50 with OVCAR-3 is 77.3 µM (inactive); with OVCAR-5 it was 54.7 µM (inactive); with SK-MEL-2 it was 74.1 µM (inactive); with SN12C, 96.4 µM (inactive); with SNB-19, > 100 µM (inactive); with SW-620, 48.1 µM (inactive). In addition, the GI50 in the experiment with UACC-62 was > 100 µM (inactive).
In the case of `COc1nc2c(c(=O)n1C)N=C(c1ccccc1)[C@H](C(CC(=O)c1ccccc1)c1ccccc1)C(c1ccccc1)N2` (stereo partly drawn), the GI50 with A498 was > 100 µM (inactive); in the experiment on ACHN it was 50.4 µM (inactive); with CAKI-1, 27 µM (inactive); in the experiment with HCC 2998, 83.8 µM (inactive); in the experiment on HOP-92, > 100 µM (inactive); in the experiment on K562, 55.5 µM (inactive). The GI50 is 30.8 µM (inactive) with KM12; > 100 µM (inactive) in the experiment on M14; 16.2 µM (inactive) with MDA-MB-231; 19.5 µM (inactive) with MOLT-4; > 100 µM (inactive) in the experiment on NCI-H23; > 100 µM (inactive) in the experiment on OVCAR-3. In addition, the GI50 in the experiment on OVCAR-5 is > 100 µM (inactive); in the experiment with SK-MEL-2 it was > 100 µM (inactive); in the experiment on SN12C, 44.7 µM (inactive); in the experiment on SNB-19, > 100 µM (inactive); with SW-620, > 100 µM (inactive); with UACC-62 it was > 100 µM (inactive).
For the compound `O=C(Nc1ccc(Cl)cc1)NS(=O)(=O)c1coc2ccccc2c1=O`, the GI50 is > 10 µM (inactive) with A498; > 10 µM (inactive) in the experiment on ACHN; > 10 µM (inactive) in the experiment with CAKI-1; > 10 µM (inactive) in the experiment on HCC 2998; above 10 µM in the experiment on HCT-15; > 10 µM (inactive) with HOP-92. Besides, the GI50 in the experiment on KM12, in the experiment on M14, with MDA-MB-231, with MOLT-4, in the experiment with Malme-3M and with NCI-H23 was > 10 µM (inactive) in each case. For the same compound, the GI50 with OVCAR-3, in the experiment with OVCAR-5, with SK-MEL-2, in the experiment with SN12C, with SNB-19 and in the experiment with SW-620 was > 10 µM (inactive) in each case. Also, in the experiment on UACC-62, the GI50 was > 10 µM (inactive).
For `O=P1(O)c2ccccc2CSCc2ccccc21`, the GI50 is > 100 µM (inactive) in the experiment with A498; > 100 µM (inactive) in the experiment with ACHN; > 100 µM (inactive) in the experiment with CAKI-1; > 100 µM (inactive) in the experiment on HCC 2998; above 100 µM in the experiment with HCT-15; > 100 µM (inactive) in the experiment on HOP-92. The GI50 in the experiment with K562, with KM12, in the experiment with M14, in the experiment with MDA-MB-231, with MOLT-4 and in the experiment on NCI-H23 was > 100 µM (inactive) each time. Also, the GI50 in the experiment on OVCAR-3, in the experiment on OVCAR-5, with SK-MEL-2, in the experiment on SN12C, in the experiment with SNB-19 and with SW-620 was > 100 µM (inactive) in each case. Further, the GI50 with UACC-62 was > 100 µM (inactive).
Turning to `CS/C(=N/S(=O)(=O)c1ccc(Cl)cc1)NCCCN/C(=N\S(=O)(=O)c1ccc(Cl)cc1)SC`, the GI50 in the experiment on A498 was 8.43 µM (inactive); with ACHN it was 12.1 µM (inactive); in the experiment on CAKI-1 it was 23.3 µM (inactive); in the experiment on HCC 2998, 22.5 µM (inactive); with HCT-15, 7.76 µM; with HOP-92 it was 1.81 µM (inactive). Also, the GI50 in the experiment on K562 was 6.11 µM (inactive); with M14, 15.4 µM (inactive); in the experiment on MDA-MB-231, 6.21 µM (inactive); in the experiment on MOLT-4, 4.8 µM (inactive); in the experiment on Malme-3M, 15.7 µM (inactive); in the experiment with OVCAR-3, 6.93 µM (inactive). For the same compound, the GI50 in the experiment on OVCAR-5 is 25.2 µM (inactive); with SK-MEL-2, 14.2 µM (inactive); in the experiment on SN12C, 5.08 µM (inactive); in the experiment on SNB-19, 80.7 µM (inactive); in the experiment with SW-620, 45.6 µM (inactive); with UACC-62, 16.9 µM (inactive).
On to `CS(=O)(=O)OCOS(C)(=O)=O`, for which the GI50 with A498 is > 100 µM (inactive); with ACHN, 58.9 µM (inactive); in the experiment with CAKI-1, 69 µM (inactive); in the experiment with HCC 2998, > 100 µM (inactive); in the experiment with HCT-15, 59.3 µM; in the experiment on HOP-92, > 100 µM (inactive). Also, the GI50 in the experiment with K562 is > 100 µM (inactive); with KM12, > 100 µM (inactive); with M14, > 100 µM (inactive); in the experiment on MDA-MB-231, > 100 µM (inactive); in the experiment on MOLT-4, 22.9 µM (inactive); in the experiment with NCI-H23 it was 69 µM (inactive). For the same compound, the GI50 in the experiment on OVCAR-3 is > 100 µM (inactive); with OVCAR-5 it was > 100 µM (inactive); in the experiment on SK-MEL-2, > 100 µM (inactive); in the experiment with SN12C, > 100 µM (inactive); in the experiment with SNB-19 it was > 100 µM (inactive); in the experiment with SW-620, 34.4 µM (inactive). For the same compound, the GI50 with UACC-62 is > 100 µM (inactive).
